Here are results for 2 compounds from patent US6680331B2, “Lactam and thiolactam derivatives as anesthetic and conscious sedation agents” (priority 2001, dated 2004).

“And” between values parts separate entries of the source, which are not always exact repeats. Identical values can stand only once.

The test system of one series is mice. To be noted: cited from earlier work.
For a further series, the system named is Female ICR mice. Kind of series: Loss of righting reflex (LORR) model of anesthesia. Format: in vivo. From the text:
Female ICR mice, weighing between 18 and 31 g were used for all experiments. The animals were housed four in a cage in a […] light/dark cycle with free access to food and water. Animal weight at the time of the experiment ranged from 22 to 33 g. On the day of the experiment, animals were brought to the lab in groups of 6-8. They were not allowed food or water for the duration of the testing period. After each experiment, animals were sacrificed.
Diethyl lactam was synthesized as described previously (Example 1 and U.S. Pat. Nos. 6,066,666 and 5,776,959) and dissolved in 0.9% saline. All drugs were given by intraperitoneal (i.p.) injections in a volume of 0.01 ml/g body weight.
The anesthetic effect was determined using the loss of righting reflex (LORR) model of anesthesia. […] The time to onset and duration of loss of righting reflex was recorded for each animal.
Animals were given diethyl lactam at doses of 250, 325, 375, 500, 625, 750, 875 and 1000 mg/kg of body weight, and the time to regain the righting reflex (RR) as well as the duration of LORR were measured (Table 1). […] Other movements include a shiver (one mouse), a head twitch (one mouse), face vibrations (one mouse) and repetitive hindlimb scratching (one mouse).

Setting [1] is: 500 mg/kg i.p., mice, ± one standard deviation.
The mark [2] stands for this setting: 625 mg/kg i.p., mice, ± one standard deviation.
Setting [3] is: 750 mg/kg i.p., mice, ± one standard deviation.
[4] abbreviates: 1000 mg/kg i.p., mice, ± one standard deviation.
[5] abbreviates: 1000 mg/kg i.p., two mice excluded from the trial, listed as diethyl lactam.

As to `CCC1(CC)CCCNC1=O` [3,3-diethyl-2-piperidinone], in the series on mice, the Sedative activity entry is “only weak sedative activity”.
Regarding `CCC1(CC)CCNC1=O` [DiethylABL, 3,3-diethyl-2-pyrrolidinone], in the series with Female ICR mice (250 mg/kg i.p., mice), the “Duration of LORR” value was 0 min and the “LORR (time to onset of loss of righting reflex)” value is recorded as “none at 30 min”. In addition, in the series with Female ICR mice (325 mg/kg i.p., mice), the “Duration of LORR” value amounted to 0 min and the “LORR (time to onset of loss of righting reflex)” value is “none at 30 min”. Further, in the series with Female ICR mice (375 mg/kg i.p., mice), the “Duration of LORR” value was 0 min and the “LORR (time to onset of loss of righting reflex)” value is recorded as “none at 30 min”. In the series on Female ICR mice (500 mg/kg i.p., five mice), the Face vibrations result was “one mouse”, the Head twitch result is “one mouse”, the “Mice seen to twitch” value is “Three of the five” and the Repetitive hindlimb scratching result is reported as “one mouse”. For the same compound, the Shiver entry with Female ICR mice (500 mg/kg i.p., five mice) was “one mouse”. In the series on Female ICR mice (500 mg/kg i.p., mice), the “Physical movements observed during the experiment” value is “various physical movements”. In addition, in the series with Female ICR mice (setting [1]), the “Duration of LORR” value was determined as 38.8 ± 11.6 min, the “LORR (time to onset of loss of righting reflex)” value stood at 2.4 ± 1.8 min and the “Regain RR” value was 41 ± 12 min. In the series with Female ICR mice (setting [2]), the “Duration of LORR” value is 51.3 ± 16.2 min, the “LORR (time to onset of loss of righting reflex)” value came to 1.7 ± 0.8 min and the “Regain RR” value worked out at 53 ± 16 min. Further, in the series with Female ICR mice (setting [3]), the “Duration of LORR” value is 109.7 ± 2.0 min, the “LORR (time to onset of loss of righting reflex)” value is 0.9 ± 0.3 min and the “Regain RR” value turned out to be 110 ± 2 min. Also, in the series on Female ICR mice (875 mg/kg i.p., mice), the “Duration of LORR” value was above 360 min, the “LORR (time to onset of loss of righting reflex)” value is recorded as 0.8 min and the “Regain RR” value was above 360 min. Further, in the series on Female ICR mice (setting [4]), the “Duration of LORR” value was determined as 1470.0 ± 756 min, the “LORR (time to onset of loss of righting reflex)” value was 2.0 ± 2.1 min and the “Regain RR” value is 1470 ± 85 min. In the series with Female ICR mice (setting [5]), the “LORR (time to onset), individual mice excluded as outliers” value is 2.4 min and 4.2 min; the “LORR duration, individual mice excluded as outliers” value was 156.6 min and 170.3 min; the “Regaining RR, individual mice excluded as outliers” value was 159 min and 174.5 min. In addition, the “Time of death after injection” value in the series on Female ICR mice (1000 mg/kg i.p., two mice included in the trial, listed as diethyl lactam) was 7.3 min and 4.0 min.
